Experimental data: article PMC9362872 (Journal of Clinical Oncology, 2022)

How the values were obtained:
[1] = type: in vivo, human
[2] = type: in vivo, human; remark: listed apart in the source
[3] = 28-day GLP dog toxicology studies; type: in vivo; settings: dog (most sensitive species)
[4] = Projected human oral half-life; settings: projection before first-in-human dosing
[5] = multiple doses of 150 mg and 300 mg once daily, individual patients
[6] = RP2D 600 mg twice a day (20 patients), any grade

C=C(F)C(=O)N1CCN(c2nc(OC[C@@H]3CCCN3C)nc3c2CCN(c2cccc4cccc(Cl)c24)C3)C[C@@H]1CC#N [Adagrasib]
PTR [1, 5]: approximately three
drug accumulation [1, 5]: approximately three- to four-fold
accumulation of adagrasib ([1]; multiple doses of 600 mg twice a day, steady state): approximately five- to six-fold
DLTs ([2]; 150 mg, 300 mg, 600 mg once daily, one patient each): No DLTs
patients who experienced DLTs ([2]; 600 mg twice a day, DLT-evaluable patients): three of the 18
patients who experienced a DLT ([2]; 600 mg twice a day, first cohort of six evaluable patients): one patient
TRAE fatigue, grade 3/4 ([2]; RP2D 600 mg twice a day): 15.0%
TRAE diarrhea [2, 6]: 70.0%
TRAE fatigue [2, 6]: 45.0%
TRAE nausea [2, 6]: 80.0%
TRAE vomiting [2, 6]: 50.0%
maximum tolerated dose ([2]; all dose cohorts): No maximum tolerated dose was formally defined
patients who experienced one or more DLTs ([2]; all dose levels, 23 DLT-evaluable patients): 21.7%
recommended phase II dose (RP2D) ([2]; oral, based on safety, tolerability and PK): 600 mg twice a day
highest nonseverely toxic dose (HNSTD) [3]: 25 mg/kg/day
projected human oral t1/2 [4]: approximately 15 hours
